Measurements taken from PubChem BioAssay (NCI).
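Growth conditions: 96-well plates. Treatment: test compound, 48 hours, 5 concentrations. Analysis: linear interpolation between bracketing concentrations; unreached endpoints set to highest concentration. TGI denotes the concentration required for complete inhibition of growth.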

How the values were obtained:
Assay in all cases: NCI anticancer screen, dose series, 48 h
MCF7 breast = test system: MCF7 breast
NCI-H460 lung = test system: NCI-H460 lung
RPMI-8226 leukemia = test system: RPMI-8226 leukemia
ACHN renal = test system: ACHN renal
MDA-MB-435 = test system: MDA-MB-435
SF-295 CNS = test system: SF-295 CNS
HOP-62 NSCLC = test system: HOP-62 NSCLC
SW-620 colon = test system: SW-620 colon
CAKI-1 renal = test system: CAKI-1 renal
SK-MEL-5 melanoma = test system: SK-MEL-5 melanoma

Compound	TGI (MCF7 breast) [µM]	TGI (NCI-H460 lung) [µM]	TGI (RPMI-8226 leukemia) [µM]	TGI (ACHN renal) [µM]	TGI (MDA-MB-435) [µM]	TGI (SF-295 CNS) [µM]	TGI (HOP-62 NSCLC) [µM]	TGI (SW-620 colon) [µM]	TGI (CAKI-1 renal) [µM]	TGI (SK-MEL-5 melanoma) [µM]
c1csc(-c2ccsc2-c2cccs2)c1	> 100	> 100	66.8	> 100	53.7	> 100	> 100	> 100	> 100	> 100
Cc1cccc(N2C(=O)C3c4[nH]c5ccccc5c4C4CCC(C(C)(C)C)CC4C3C2=O)c1 (stereo not given)	24.5	19	25.8	17.7	29.6	21.9	13.3	24.1	26.1	28.4
C/C=C1\CN(C(=O)OC(C)(C)C)C1C(=O)OC(C)(C)C (stereo not given)	> 100	> 100	> 100	> 100	> 100	> 100	> 100	> 100	> 100	> 100
CC(C)(C)c1cc(OCc2nn3c(Cc4ccccc4)nnc3s2)c(Cl)cc1OCc1nn2c(Cc3ccccc3)nnc2s1	> 100	> 100	> 100	> 100	> 100	> 100	> 100	> 100	> 100	26.6
CCCCCCCCCCCCCCC(O)C[N+](C)(CCO)CCO (stereo not given)	36.5	6.56	5.52	21.7	21.3	9.96	10.3	23.7	9.59	16.9
Nc1nc(Cl)cc(NC2(CO)CCC2)n1	> 100	> 100	> 100	> 100	> 100	> 100	> 100	> 100	> 100	> 100
Cc1cc(S(=O)(=O)Nc2nnc3cnc4ccccc4n23)c(S)cc1Cl	> 100	> 100	> 100	> 100	> 100	> 100	> 100	> 100	> 100	> 85.9
NC1=Nc2cc(Cl)ccc2Sc2nc3ccccc3n21	> 100	> 100	> 100	> 100	> 100	> 100	> 100	> 100	> 100	> 100
CC(=O)Oc1c(-c2ccccc2)sc2ccccc12	56.4	27.7	24.8	32	59	40.3	45.7	> 100	22.8	44.5
Cc1c(N=Nc2ccccc2)c(C)n(C2OC(CO)C(O)C(O)C2O)c(=S)c1C#N (stereo not given)	> 100	> 100	> 100	> 100	71.4	> 100	59.6	> 100	> 100	25
NC(CSSCC(N)=NCC12CC3CC(CC(C3)C1)C2)=NCC12CC3CC(CC(C3)C1)C2	> 100	> 100	6.17	26.6	28.1	31.3	> 100	41.6	36.4	36.5
O=C(/C=C(\S/C=C(/c1ccccc1)N1CCn2c(C(=O)c3ccccc3)c(C(=O)c3ccccc3)c(C(=O)c3ccccc3)c21)C(=O)c1ccccc1)c1ccccc1	> 10	> 10	> 10	> 10	> 10	> 10	> 10	> 10	> 10	> 10
COc1ccccc1NC(=O)CC(=O)N1N=C(N2c3ccccc3Sc3ccccc32)CC1c1ccccc1 (stereo not given)	> 100	> 100	> 100	> 100	> 100	> 100	> 100	> 100	> 100	> 100
CC(=O)Oc1ccc2c(c1)CC[C@@H]1C2[C@@H](O[N+](=O)[O-])C[C@@]2(C)C1CC[C@@H]2O[N+](=O)[O-] (stereo not given in full)	22.4	28.7	31	22	33.5	23.7	15.5	33.1	33.6	22.7
Clc1cccc(NN=Nc2ccc(-c3nc4ccccc4s3)cc2)c1	> 100	> 100	> 100	> 100	> 100	> 100	> 100	> 100	> 100	74.9
COc1cc2c3c(n(C)c(=O)c2cc1OC)-c1cc2c(cc1/C3=C\CCCI)OCO2	> 100	> 100	> 74.6	> 85.3	> 100	> 41.6	> 100	> 100	> 100	> 100
